A word on the IC50: it is the point on the concentration scale where inhibition reaches its midpoint. The residence time is the mean lifetime of the complex, commonly the reciprocal of the off-rate. For orientation: koff means the rate constant with which the complex falls apart. A low value points to a long-lived complex. In general, Km refers to the concentration of substrate that gives half-maximal velocity. Broadly, the kcat is the maximal rate divided by the concentration of active sites. Usually kcat/Km stands for the second-order rate constant that governs catalysis at low substrate concentration. As a reminder, the MIC is the lowest concentration that inhibits growth of the organism.

These results are taken from PMC12888861, “Antibacterial activity of enmetazobactam against Acinetobacter spp.: a molecular dissection of mechanism of action and resistance determinants” (Antimicrobial Agents and Chemotherapy, 2025).

The subject of one data set is OXA-24/40. The conditions noted are these: cited from earlier work.
For data set [1], the target named is T1, OXA-23 (Acinetobacter baumannii, UniProt Q9L4P2).
T1 construct: GST (N); made in house; host or cells: Escherichia coli BL21
T1 sequence (Q9L4P2 18-273): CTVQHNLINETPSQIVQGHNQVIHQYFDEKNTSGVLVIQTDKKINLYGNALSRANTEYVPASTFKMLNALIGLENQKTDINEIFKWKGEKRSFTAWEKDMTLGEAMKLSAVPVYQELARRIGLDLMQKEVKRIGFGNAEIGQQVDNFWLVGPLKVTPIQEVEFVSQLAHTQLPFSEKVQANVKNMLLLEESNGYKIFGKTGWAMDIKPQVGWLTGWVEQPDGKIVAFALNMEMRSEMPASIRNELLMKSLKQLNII
Description: Jump-dilution dissociation assay (koff, t1/2) with OXA-23. The class given is biochemical. As to the method:
(§1) The Michaelis-Menten constant (Km) was determined by fitting the data to the Michaelis-Menten equation, following established protocols ([38]). The kcat (hydrolysis rate constant of the β-lactamase) was obtained by linearization of the kinetic data ([39]). To assess the possible inhibitory capacity of enmetazobactam against the CHDLs of A. baumannii, specific OXA-23 inhibition kinetics assays were performed in a Nanoquant Infinite spectrophotometer (Tecan). […] Also, the dissociation constant (koff), which represents the rate at which the enzyme-inhibitor complex dissociates (i.e., the proportion of the enzyme-inhibitor complex that dissociates per unit of time), was determined through a jump-dilution assay that monitored OXA-23 activity recovery as the enzyme-inhibitor complex dissociated. OXA-23 (1 µM) was preincubated for 30 min at 37°C with excess of inhibitors (50× IC₅₀) to ensure full acyl-enzyme complex formation. Subsequently, the mixture was diluted 1:5,000 to allow gradual complex dissociation. […] Enzymatic activity, reflecting the progressive dissociation of the acyl-enzyme complex, was monitored spectrophotometrically at 490 nm for 8 h. The resulting progress curves were fitted using GraphPad Prism (GraphPad Software, MA, USA) to equation 1 to estimate koff, where V0 is the initial, inhibited enzyme velocity; Vs is the steady-state uninhibited enzyme velocity, and t is time.
(1) P=Vs×t+(V0−Vs)×[1−exp^(−koff × t)]/koff

In data set [2] the target is T1, OXA-23. Description: OXA-23 inhibition assay (nitrocefin hydrolysis IC50). The format is biochemical. The conditions noted are these: OXA-23; nitrocefin hydrolysis; 10 min preincubation at room temperature; read-out: IC50. Here is the method: as §1
Data set [3] concerns [H][C@@]12CC(=O)N1[C@@H](C(=O)[O-])[C@](C)(Cn1cc[n+](C)n1)S2(=O)=O. The data set can be described thus: purified protein, by the assay type. The conditions noted are these: other: hydrolysis by OXA-23, 25°C, pH 7.4.
Description: All kinetics measurements were performed in triplicate, at 25°C, in 20 mM NaHCO3 and 50 mM Na2HPO4 at pH 7.4.
For data set [4], the system named is carbapenem-resistant CHDL-producing A. baumannii isolates (OXA-23, OXA-24/40, OXA-58). Description: Checkerboard synergy assay (FIC index). The class given is cell-based, Acinetobacter baumannii. The conditions noted are these: checkerboard colistin x enmetazobactam, alone or in presence of the partner. As to the method:
Checkerboard assays were performed to assess synergistic interactions between the cefepime/enmetazobactam combination and sulbactam, as well as between enmetazobactam alone and either sulbactam or colistin. […] The assays were conducted with three multidrug-resistant A. baumannii isolates from the Spanish Multicenter Collection, each producing a different OXA-type carbapenemase: OXA-23, OXA-24/40, or OXA-58. The FIC index was calculated and interpreted as follows: FICindex ≤ 0.5, synergy; FICindex > 0.5–4, no synergy; and FICindex > 4, antagonism ([33], [34]).

In the case of `CC1=C[C@@H]2CN(C(=O)N2OS(=O)(=O)O)[C@@H]1C(N)=O` [durlobactam], the figures for the IC50 in the data set with OXA-24/40 and at OXA-23 [2] were 190 nM and 170 nM, respectively. This compound showed a residence time at OXA-23 [1] (jump dilution) of 412 ± 4 min. The compound also had a koff at OXA-23 [1] (jump dilution 1:5,000) of 2.8e-05 s⁻¹.
As to OXA-23 (Acinetobacter baumannii), in data set [3], the Km is 171.85 ± 55.78 µM, the kcat was 0.177 ± 0.056 s⁻¹ and the kcat/Km was 1030 M⁻¹ s⁻¹.
Regarding colistin, the MIC in data set [4] (isolate Ab4 (OXA-23)) turned out to be 1 µg/mL; in data set [4] (isolate Ab138 (OXA-58)), 1 µg/mL; in data set [4] (isolate Ab180 (OXA-24/40)), 0.25 µg/mL.
